Test results as given in PMC11574108, “4-Furanylvinylquinoline derivative as a new scaffold for the design of oxidative stress initiator and glucose transporter inhibitor drugs” (Scientific Reports, 2024).
Where two headings read alike, the source gives them in different places.

Tests used:
HCT 116 p53+/+ spheroids = assay: 3D spheroid cell viability assay; assay type: cell-based, human; details: 3D spheroids, CellTiter-Glo 3D, 72-h treatment, read-out: IC50 HCT 116 p53+/+ (3D model)
Description: (§1) The HCT 116 cell lines, AsPC-1, PANC-1 (5,000), and U-251 cells (8,000) in 100 µL of medium were seeded in 96-well ULA Corning spheroid microplates (Sigma-Aldrich) and incubated for 72 h at 37 °C to form spheroids. The medium from each well was then gently removed and freshly prepared solutions of 13 were added. The treated spheroids were incubated for the next 72-h. Afterward, cell viability assays were performed using CellTiter-Glo 3D Reagent (Promega) according to the manufacturer’s protocol. Briefly, CellTiter-Glo 3D Reagent was added in equal volume to the medium in each well. The plate was vigorously mixed for 5 min and then incubated for 25 min at room temperature. The luminescence was measured using a multiplate reader (Synergy 4, BioTek). The experiment for each sample was performed at least three times. The results from the assay are presented as IC50 values, which were calculated using GraphPad Prism v.8.0 (USA).
To confirm the cytotoxicity ranking, the viability of the cells was also estimated on a 3D spheroid model, which better represented a solid tumour. […] The cell lines that represented pancreatic cancer were less responsive to derivative 13, which was similar to the 2D model. […]

CDK1 = assay: qRT-PCR, CDK1 mRNA expression; assay type: cell-based, human; details: for CDK1 mRNA level vs control: HCT 116 p53-/-, 24 h
Description: The cells were seeded in 35 mm Petri dishes at a density of 500,000 cells and incubated at 37 °C for 24 h. The total RNA was isolated after incubation with solutions of 13 (0.5 µM and 1.0 µM) for 24 h and 48 h, respectively. The isolation from the samples was carried out according to a TRIzol™ Reagent protocol (Thermo Fisher Scientific). Synthesis of cDNA was performed with 2 µg of total RNA using a GoScript™ Reverse Transcriptase kit (Promega) with Oligo(dT)23 Primers. Real-Time PCR was carried out using a CFX96 Touch™ Real-Time PCR Detection System (Bio-Rad) in 10 µL reaction volume. Each sample contained SsoAdvanced™ Universal SYBR Green Supermix (Bio Rad), a specific primer pair mix (0.5 µM each), and 1 µL of cDNA. The reaction was performed under the following conditions: initial denaturation at 95 °C for 30 s; 40 cycles of denaturation at 95 °C for 15 s; annealing (primer-specific temperature) for 30 s, and extension at 72 °C for 60 s. The obtained data were analysed based on a comparison of the expression of the target genes and normalized to a reference gene (GAPDH) using the Livak-Schmittgen (2^−ΔΔCT) method. The experiments were performed at least three times.
In the next step, we decided to investigate the impact of derivative 13 on the mRNA level of CDK1 (the gene encoding one of the cell cycle regulation proteins) at various concentrations and time points (Fig. 4B). In the HCT 116 p53^+/+ cells after the application 0.5 µM of derivative 13, we noticed a slight increase in the expression of CDK1 after both 24 and 48-h. […] However, after a further incubation time, the mRNA level of this gene was similar to that in the untreated cells.

U-251 = assay: Cell cycle assay (flow cytometry); assay type: cell-based, human; details: 2xIC50, 24-h treatment; control 20.44%
Description: (§2) The cells were seeded in 35 mm Petri dishes, 200,000 cells per dish, and incubated overnight under standard conditions at 37 °C. […] After a 24-h incubation, the experiment was carried out using a Muse™ Cell Cycle Kit (Millipore) according to the available procedure. Briefly, the cells were detached and collected in Eppendorf tubes. The samples were then washed with cold phosphate-buffered saline (PBS), centrifuged at 300 g (5 min), and fixed in ice-cold 70% ethanol. The cells were stored at -20 °C overnight. The next day, the samples were sequentially washed with cold PBS, centrifuged resuspended in 200 µL of Muse™ Cell Cycle Reagent, and incubated in the dark for 30 min at room temperature. The percentage of cells in specified cell cycle phases was estimated using a Muse™ Cell Analyzer (Millipore). The experiments were carried out three times.
(§3) When analysing the antiproliferative activity of the tested compounds, we decided to determine the molecular mechanism of action of the most promising derivative 13 in three cell lines with different statuses of p53, for which the derivative has the highest activity. In order to achieve this goal, we started by studying the changes in the cell cycle in order to determine why proliferation stops. To evaluate the effect of derivative 13 on the cell cycle progression, we used flow cytometry. After a 24-h treatment, we observed a significant inhibition in the G2/M phase in both HCT 116 cell lines (Fig. 4A).

HCT 116 p53+/+ = assay: Cell cycle assay (flow cytometry); assay type: cell-based, human; details: 2xIC50, 24-h treatment; control 30.81%
Description: as §2, §3

HCT 116 p53-/- = assay: Cell cycle assay (flow cytometry); assay type: cell-based, human; details: 2xIC50, 24-h treatment; control 34.35%
Description: as §2, §3

U-251 spheroids = assay: 3D spheroid cell viability assay; assay type: cell-based; details: Homo sapiens, 3D spheroids, CellTiter-Glo 3D, 72-h treatment, read-out: IC50 U-251 (3D model)
Description: as §1
(§4) To confirm the cytotoxicity ranking, the viability of the cells was also estimated on a 3D spheroid model, which better represented a solid tumour. […] The cell lines that represented pancreatic cancer were less responsive to derivative 13, which was similar to the 2D model. […] However, the activity of derivative 13 was confirmed on the 3D model that reflected a real tumour, which is undoubtedly a positive result and a reason for further, more in-depth studies to clarify the mechanism of action of the 4-furanylvinylquinoline derivative 13.

HCT 116 p53-/- spheroids = assay: 3D spheroid cell viability assay; assay type: cell-based; details: Homo sapiens, HCT-116, 72 h, 3D spheroids, CellTiter-Glo 3D, 72-h treatment; read-out: IC50 HCT 116 p53-/- (3D model)
Description: as §1, §4

PANC-1 spheroids = assay: 3D spheroid cell viability assay; assay type: cell-based; details: Homo sapiens, 3D spheroids, CellTiter-Glo 3D, 72-h treatment, read-out: IC50 PANC-1 (3D model)
Description: as §1, §4

AsPC-1 spheroids = assay: 3D spheroid cell viability assay; assay type: cell-based; details: Homo sapiens, ASPC1; 3D spheroids, CellTiter-Glo 3D, 72-h treatment; read-out: IC50 AsPC-1 (3D model)
Description: as §1, §4

IC50 (HCT 116 p53+/+ spheroids): 1.16 ± 0.19 µM | IC50 (HCT 116 p53+/+ spheroids; Homo sapiens, HCT-116, 72 h): ~1 µM | IC50 (U-251 spheroids): 0.34 ± 0.07 µM | IC50 (HCT 116 p53-/- spheroids): ~1 µM | IC50 (PANC-1 spheroids): 2.16 ± 0.37 µM | IC50 (AsPC-1 spheroids): 4.18 ± 1 µM
Compound: O=[N+]([O-])c1ccc(/C=C/c2ccnc3ccccc23)o1 [Compound 13]
CDK1 mRNA level vs control (CDK1; 0.5 µM): two-fold higher | CDK1 mRNA level vs control (CDK1; 1 µM): around one and the half times | CDK1 mRNA expression vs control (CDK1; U-251, 24 h): greater than two-fold upregulation | percentage of cells in S phase (U-251): 35.59% | population of cells in G2/M phase (HCT 116 p53+/+): 49.78% | population of cells in G2/M phase (HCT 116 p53-/-): 44.95%
